Measurements as given in patent US12077503B2, “Substituted cyclic amides and their use as herbicides” (FMC CORPORATION, priority 2015, dated 2024).

Experiments:
Type in all cases: in vivo
[1] = tested on: ragweed (common ragweed, Ambrosia elatior); assay: Test A preemergence; details: for Plant response rating, Ragweed: preemergence
Procedure, shortened: (§1)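 Visual injury scores from 0, no effect, to 100, complete control, were assigned versus untreated controls roughly 10 d after treatment in the greenhouse. Test chemicals, formulated with surfactant in a non-phytotoxic solvent, were applied to planted seeds as a preemergence soil spray or postemergence to one- to two-leaf plants 2 to 10 cm tall, in loam–sand soil.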

[2] = tested on: Kochia (Kochia scoparia); assay: Test A preemergence; details: for Plant response rating, Kochia: preemergence
Procedure, shortened: as §1

[3] = tested on: giant foxtail (Setaria faberii); assay: Test A preemergence; details: for Plant response rating, Foxtail, Giant: preemergence
Procedure, shortened: as §1

[4] = tested on: barnyardgrass (Echinochloa crus-galli); assay: Test A preemergence; details: for Plant response rating, Barnyardgrass: preemergence
Procedure, shortened: as §1

[5] = tested on: pigweed (Amaranthus retroflexus); assay: Test A preemergence; details: for Plant response rating, Pigweed: preemergence
[6] = tested on: ryegrass, Italian (Italian ryegrass, Lolium multiflorum); assay: Test A preemergence; details: for Plant response rating, Ryegrass, Italian: preemergence
Procedure, shortened: as §1

[7] = tested on: sedge, umbrella (small-flower umbrella sedge, Cyperus difformis); assay: Test B flooded paddy test; details: Flood, 500 g ai/ha; 0 to 100 scale where 0 is no effect and 100 is complete control; 13 to 15 d
Procedure, shortened: (§2)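 Visual ratings (0 none to 100 complete control) are relative to untreated plants, taken 13–15 d after treatment in a greenhouse. Test material went straight into floodwater standing 3 cm above the soil, kept constant, on plants at the 2-leaf stage.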

[8] = tested on: ducksalad (Heteranthera limosa); assay: Test B flooded paddy test; details: Flood, 500 g ai/ha; 0 to 100 scale where 0 is no effect and 100 is complete control; 13 to 15 d
Procedure, shortened: as §2

[9] = tested on: barnyardgrass (Echinochloa crus-galli); assay: Test B flooded paddy test; details: Flood, 500 g ai/ha; 0 to 100 scale where 0 is no effect and 100 is complete control; 13 to 15 d
Procedure, shortened: as §2

[10] = tested on: rice (Oryra sativa); assay: Test B flooded paddy test; details: Flood, 500 g ai/ha; 0 to 100 scale where 0 is no effect and 100 is complete control; 13 to 15 d
Procedure, shortened: as §2

[11] = tested on: blackgrass (Alopecurus myosuroides); assay: Test A postemergence; details: postemergence
Procedure, shortened: as §1

[12] = tested on: ragweed (common ragweed, Ambrosia elatior); assay: Test A postemergence; details: postemergence
Procedure, shortened: as §1

[13] = tested on: Kochia (Kochia scoparia); assay: Test A postemergence; details: postemergence
Procedure, shortened: as §1

[14] = tested on: giant foxtail (Setaria faberii); assay: Test A postemergence; details: postemergence
Procedure, shortened: as §1

[15] = tested on: barnyardgrass (Echinochloa crus-galli); assay: Test A postemergence; details: postemergence
Procedure, shortened: as §1

[16] = tested on: Galium (catchweed bedstraw, Galium aparine); assay: Test A postemergence; details: postemergence
Procedure, shortened: as §1

[17] = tested on: corn (Zea mays); assay: Test A postemergence; details: postemergence
Procedure, shortened: as §1

[18] = tested on: wheat (Triticum aestivum); assay: Test A postemergence; details: postemergence
Procedure, shortened: as §1

[19] = tested on: pigweed (Amaranthus retroflexus); assay: Test A postemergence; details: postemergence
Procedure, shortened: as §1

[20] = tested on: ryegrass, Italian (Italian ryegrass, Lolium multiflorum); assay: Test A postemergence; details: postemergence
Procedure, shortened: as §1

[21] = 125 g ai/ha, visual rating after approx. 10 d, 0 to 100 scale where 0 is no effect and 100 is complete control
[22] = 500 g ai/ha, 0 to 100 scale, 0 = no effect, 100 = complete control
[23] = 125 g ai/ha, visual injury after approximately 10 d, 0 to 100 scale (0 no effect, 100 complete control)
[24] = 500 g ai/ha, visual injury, 0 to 100 scale (0 no effect, 100 complete control), approx. 10 d
[25] = 125 g ai/ha, 0 to 100 scale (0 no effect, 100 complete control)
[26] = Preemergence, 500 g ai/ha, visual injury approx. 10 d
[27] = 125 g ai/ha, visual injury rating on 0 to 100 scale (0 no effect, 100 complete control), approx. 10 d
[28] = 500 g ai/ha, 0 to 100 scale, 0 no effect, 100 complete control

Q: With `O=C1NCC(c2ccc(I)cc2)C1C(=O)Nc1ccc(F)cc1F` (racemic) [Compound 701] as the compound, how does the “Plant response rating, Ragweed” value [1, 21] read?
A: 0

Q: What about the “Plant response rating, Ragweed” value [1, 22] of the same compound?
A: 0

Q: And the “Plant response rating, Kochia” value [2, 21]?
A: 0

Q: And the “Plant response rating, Kochia” value [2, 22]?
A: 0

Q: And the “Plant response rating, Foxtail, Giant” value [3, 21]?
A: 90

Q: What about the “Plant response rating, Foxtail, Giant” value [3, 22] of the same compound?
A: 90

Q: And the “Plant response rating, Barnyardgrass” value [4, 21]?
A: 60

Q: What about the “Plant response rating, Barnyardgrass” value [4, 22] of the same compound?
A: 90

Q: And the “Plant response rating, Pigweed” value [5, 21]?
A: 0

Q: What about the “Plant response rating, Pigweed” value [5, 22] of the same compound?
A: 0

Q: What about the “Plant response rating, Ryegrass, Italian” value [6, 21] of the same compound?
A: 0

Q: What about the “Plant response rating, Ryegrass, Italian” value [6, 22] of the same compound?
A: 0

Q: What about the “Plant response rating, Sedge, Umbrella” value [7] of the same compound?
A: 0

Q: And the “Plant response rating, Ducksalad” value [8]?
A: 100

Q: And the “Plant response rating, Barnyardgrass” value [9]?
A: 65

Q: And the “Plant response rating, Rice” value [10]?
A: 0

Q: And the “Plant response rating, Blackgrass” value [11, 23]?
A: 0

Q: And the “Plant response rating, Blackgrass” value [11, 24]?
A: 0

Q: And the “Plant response rating, Ragweed” value [12, 23]?
A: 0

Q: And the “Plant response rating, Ragweed” value [12, 24]?
A: 0

Q: What about the “Plant response rating, Kochia” value [13, 23] of the same compound?
A: 0

Q: What about the “Plant response rating, Kochia” value [13, 24] of the same compound?
A: 0

Q: And the “Plant response rating, Foxtail, Giant” value [14, 23]?
A: 60

Q: And the “Plant response rating, Foxtail, Giant” value [14, 24]?
A: 70

Q: And the “Plant response rating, Barnyardgrass” value [15, 23]?
A: 60

Q: What about the “Plant response rating, Barnyardgrass” value [15, 24] of the same compound?
A: 70

Q: And the “Plant response rating, Galium” value [16, 23]?
A: 0

Q: And the “Plant response rating, Galium” value [16, 24]?
A: 0

Q: And the “Plant response rating, Corn” value [17, 23]?
A: 0

Q: What about the “Plant response rating, Corn” value [17, 24] of the same compound?
A: 0

Q: And the “Plant response rating, Wheat” value [18, 23]?
A: 0

Q: And the “Plant response rating, Wheat” value [18, 24]?
A: 0

Q: What about the “Plant response rating, Pigweed” value [19, 23] of the same compound?
A: 0

Q: And the “Plant response rating, Pigweed” value [19, 24]?
A: 0

Q: What about the “Plant response rating, Ryegrass, Italian” value [20, 23] of the same compound?
A: 0

Q: What about the “Plant response rating, Ryegrass, Italian” value [20, 24] of the same compound?
A: 0

Q: `Cc1cc(NC(=O)C2C(=O)NCC2c2cccc(OC(F)F)c2)ccc1F` (stereo not drawn) [Compound 424] was tested. Which “Plant response rating, Ragweed” value [1, 25] did it give?
A: 0

Q: What about the “Ragweed plant response rating (0 to 100 scale, 0 is no effect, 100 is complete control)” value [1, 26] of the same compound?
A: 0

Q: And the “Plant response rating, Kochia” value [2, 25]?
A: 0

Q: And the “Kochia plant response rating (0 to 100 scale, 0 is no effect, 100 is complete control)” value [2, 26]?
A: 0

Q: What about the “Plant response rating, Foxtail, Giant” value [3, 25] of the same compound?
A: 70

Q: And the “Foxtail, Giant plant response rating (0 to 100 scale, 0 is no effect, 100 is complete control)” value [3, 26]?
A: 90

Q: What about the “Plant response rating, Barnyardgrass” value [4, 25] of the same compound?
A: 30

Q: What about the “Barnyardgrass plant response rating (0 to 100 scale, 0 is no effect, 100 is complete control)” value [4, 26] of the same compound?
A: 90

Q: What about the “Plant response rating, Pigweed” value [5, 25] of the same compound?
A: 0

Q: What about the “Pigweed plant response rating (0 to 100 scale, 0 is no effect, 100 is complete control)” value [5, 26] of the same compound?
A: 0

Q: And the “Plant response rating, Ryegrass, Italian” value [6, 25]?
A: 0

Q: And the “Ryegrass, Italian plant response rating (0 to 100 scale, 0 is no effect, 100 is complete control)” value [6, 26]?
A: 0

Q: And the “Plant response rating, Sedge, Umbrella” value [7]?
A: 0

Q: And the “Plant response rating, Ducksalad” value [8]?
A: 30

Q: And the “Plant response rating, Barnyardgrass” value [9]?
A: 0

Q: What about the “Plant response rating, Rice” value [10] of the same compound?
A: 0

Q: And the “Blackgrass plant response rating” value [11, 27]?
A: 0

Q: What about the “Plant response rating, Blackgrass” value [11, 28] of the same compound?
A: 0

Q: What about the “Ragweed plant response rating” value [12, 27] of the same compound?
A: 0

Q: And the “Plant response rating, Ragweed” value [12, 28]?
A: 0

Q: And the “Kochia plant response rating” value [13, 27]?
A: 0

Q: What about the “Plant response rating, Kochia” value [13, 28] of the same compound?
A: 0

Q: And the “Foxtail, Giant plant response rating” value [14, 27]?
A: 40

Q: What about the “Plant response rating, Foxtail, Giant” value [14, 28] of the same compound?
A: 70

Q: What about the “Barnyardgrass plant response rating” value [15, 27] of the same compound?
A: 50

Q: And the “Plant response rating, Barnyardgrass” value [15, 28]?
A: 70

Q: And the “Galium plant response rating” value [16, 27]?
A: 0

Q: And the “Plant response rating, Galium” value [16, 28]?
A: 0

Q: And the “Corn plant response rating” value [17, 27]?
A: 0

Q: What about the “Plant response rating, Corn” value [17, 28] of the same compound?
A: 0

Q: What about the “Wheat plant response rating” value [18, 27] of the same compound?
A: 0

Q: What about the “Plant response rating, Wheat” value [18, 28] of the same compound?
A: 0

Q: What about the “Pigweed plant response rating” value [19, 27] of the same compound?
A: 0

Q: What about the “Plant response rating, Pigweed” value [19, 28] of the same compound?
A: 0

Q: And the “Ryegrass, Italian plant response rating” value [20, 27]?
A: 0

Q: And the “Plant response rating, Ryegrass, Italian” value [20, 28]?
A: 0
